Bridge positions count the residues as written; N and C are the ends. Square brackets hold non-standard residues; d marks the D form. Peptide text beside a SMILES is read from it. * marks the point of attachment. Biotin = O=C1N[C@H]2[C@H](CS[C@H]2CCCCC(=O)*)N1; Tyr(3-I) = N[C@@H](Cc1ccc(O)c(I)c1)C(=O)O; Ahx = NCCCCCC(=O)O

Common to all, as to design: species or system rat
Assay [1] addresses SRIF receptor. The assay is described as follows: Competitive radioligand binding assay with [125I]Tyr11-S14 and GH4 C1 membranes. The conditions noted are these: for IC50: vs [125I]Tyr11-S14, 20 ug GH4 C1 membrane protein, 100,000 cpm radioligand (FIG. 1B). Here is the method:
(§1) 1. Standard Binding Assays--Binding assays are done in a binding buffer containing 50 mM HEPES (pH 7.4), 0.5% BSA and 5 mM MgCl2. The standard assay for [^125 I]SRIF analog binding to GH4 C1 membranes, done in 96 well microtiter plates (Dynataech Immulon II Removawell plates), is carried out as follows: 1. Radioligand is diluted in binding buffer+ PMSF/Baci to the desired cpm per vol. of 50 μl and then 50 μl aliquots are added to the wells. For non-specific binding samples, 5 μl of 40 μM cold S14 is also added per well. 2. Binding is initiated by adding 150 μl per well of membrane diluted to the desired concentration (10-30 ug membrane protein/well) in binding buffer+ PMSF/Baci. Plates are then covered with Linbro mylar plate sealers (Flow Labs) and placed on a Dynatech Microshaker II and binding is allowed to proceed at room temperature for 1-2 hours. Binding is stopped by centrifuging the plate for 15 minutes at 2,000×g. The supernatants are dumped off and membrane pellets washed once by addition of 200 μl of ice cold binding buffer, brief shaking and recentrifugation. Finally the individual wells are placed in 12×75 mm tubes and counted in an LKB Gammamaster counter (78% efficiency). Specific binding by this method is identical to that measured when free ligand is removed by rapid (3-5 seconds) filtration and washing on polyethyleneimine-coated glass fiber filters.
2. competitive radioligand binding assays with a concentration range of cold ligand vs. [^125 I]SRIF are carried out as described above with one modification. All dilutions of SRIF analogs being assayed are made in 40×PMSF/Baci to a concentration 40× the final concentration in the assay. This gives very consistent results with a wide variety of SRIF structural analogs over a wide range of dilutions. 5 ul samples of peptide are then added per microtiter well. Membranes and radioligand are diluted out in binding buffer without protease inhibitors. Radioligand is added and mixed with cold peptides and then binding is initiated by addition of membranes.
These assays are carried out as described in "Methods: Receptor Binding Methods, 2". […] Therefore the Bio-6C-S14, Bio-12C-S14 and Bio-S28analogs are preferably synthesized. In Bio-S28, amino acid residues 1-14 are considered a spacer since residues 15-28 are equivalent to an S14 analog, having all the necessary structure for high affinity binding. The three spacer-containing biotinyl SRIFs show receptor binding activity similar to that of S14 (FIG. 1B; assays contained 20 ug of GH 4 C1 membrane protein and 100,000 cpm of radioligand). The IC50 s and relative potencies are S14 (0.2 nM)>Bio-S28(0.3 nM) >Bio-6C-S14 (2 nM)>Bio-12C-S14 (2 nM).

In assay [2] the test system is SRIF receptor. Description: Lectin affinity binding (WGA-agarose) of solubilized receptor:[125I]Tyr11-S14 complex. The conditions noted are these: for A/B, GFB/PEI filters: Recovery of soluble R:L complex. On the procedure:
4. Larger scale binding assays to obtain membrane pellets for studies on solubilization of receptor: ligand complex and for receptor purification are also carried out. These are identical to the standard assays except that: (a) Binding is carried out in polypropylene tubes in volumes from 1-250 ml, (b) Concentration of membrane protein is always 0.5 mg/ml, (c) For receptor purification, BSA concentration in the binding buffer is reduced to 0.25% and the wash step is done with binding buffer without BSA. This is to reduce BSA contamination of the purified receptor.
H. Assay of Solubilized Receptors--After binding of [^125 I]SRIF analogs and solubilization of the membranes with detergent, the intact R:L complex could be assayed by four different methods (all carried out on ice or in a cold room at 4°-10° C.): (1) Column chromatography (Knuhtsen et al., Biochem. J. 254:641-647, 1988). Sephadex G-50 columns (8×250 mm) are equilibrated with solubilization buffer containing detergent at the concentration used to solubilize membranes and 1 mg/ml bovine serum albumin. 0.2-0.5 ml samples of solubilized membranes are applied to the columns and eluted at a flow rate of about 0.7 ml/minute. 0.18 ml samples are collected. Radioactivity is determined in a gamma counter as described under "Receptor Binding Methods". Void volumes of the columns are determined by the elution volume of blue dextran. Radioactivity eluting in the void volume (>50,000 MW) was considered bound to protein. Radioactivity eluting later, at the same volume as free [^125 I]SRIF, is considered non-bound. (2) Polyethyleneglycol precipitation (Cuatrecasas, PNAS USA 69:318-322, 1972) For a 100 ul sample of solubilized membranes in a 12×75 mm polypropylene tube, 0.5 ml of 1% (w/v) bovine gamma globulin (Sigma) in 0.1M sodium phosphate buffer is added, followed by 0.5 ml of 25% (w/v) polyethyleneglycol (Sigma) and mixing. The mixture is held on ice for 15 minutes. Then 3 ml of 0.1M sodium phosphate (pH 7.4) is added per sample and the samples are rapidly (1-3 seconds) filtered over Whatman GF/B glass fiber filters and washed with 4 ml of the phosphate buffer. PEG precipitated SRIF receptor:[^125 I]SRIF complex is determined by gamma counting of the filters. (3) GFB/PEI filter binding (Bruns et al., Analytical Biochem. 132:74-81, 1983). Whatman GF/B glass fiber filters are soaked in 0.3% polyethyleneimine (PEI, Sigma) for 3 hours. 25-100 ul samples of solubilized membranes are replaced in 12×75 mm polypropylene tubes. Then 4 ml of solubilization buffer (without detergent) is added per sample and the samples are immediately filtered through the GFB/PEI filters (1-3 seconds) and washed with 4 ml of solubilization buffer. CPM of SRIF receptor:[^125 I]SRIF complex adsorbed to filters are determined by gamma counting. (4) Charcoal/Dextran (Paul and Said, Peptides 7[Suppl. 1]:147-149, 1986). 0.5 gm of Dextran T70 (Pharmacia) is dissolved in 1 liter of water and then 5 gm of activated charcoal (Norit A, alkaline; Fisher Scientific) is added. The suspension is stirred for 10 minutes at room temperature and then stored at 4° C. until use. To measure R:L complex, 4 parts by volume of charcoal/dextran suspension are added to 1 part by volume of solubilized membrane. The samples are mixed and held on ice for 2 minutes and then centrifuged for 2 minutes at 11,000×g in a Beckman microfuge. Free radioligand is adsorbed charcoal/dextran and is discarded with the pellet. SRIF receptor:[^125 I]SRIF complex remain in the supernatant and is determined by gamma counting.
A. Solubilized Receptor: [^125 I]Tyr11-S14 Complex-Binding of [^125 I][…] to GH4 C1 membranes is carried out as in "Receptor Binding Methods. 4". Binding incubations contain 0.5 mg/ml membrane protein and 6×10^6 cpm/ml of [^125 I]Tyr11-S14. Solubilization of membranes in 0.15% deoxycholate:lysolecithin is also as previous described. […]

Assay [3] deals with SRIF receptor. Description: Scatchard analysis of binding of [125I]-labelled SRIF analogs to GH4 C1 membranes. The conditions noted are these: GH4 C1 membranes (FIG. 2), read-out: dissociation constant (KD). Here is the method: as §1
Because Bio-C6-S14, Bio-C12-S14 and Bio-S28 all contain tyrosine residues, it is possible to prepare their [^125 I] labelled analogs and carry out Scatchard analyses of their binding affinities relative to [^125 I]Tyr11-S14 (FIG. 2). As shown in the figure, the [^125 I]-labelled peptides fall in the same order of potency as their non-labelled forms. The dissociation constants (KDs) and relative binding affinities are [^125 I]Tyr11-S14 (0.1 nM)>[^125 I]Bio-S28 (0.2 nM)>[^125I]Bio-6C-S14 (0.3 nM)>[^125 I]Bio-12C-S14 (0.4 nM).

Where [4] appears, read: Sample: 100,000 x g supernatant.
Setting [5] is: Sample: Eluted from WGA-agarose.
The mark [6] stands for this setting: Sample: Non-bound to WGA-agarose.

As to `C[C@H](NC(=O)CCCCCNC(=O)CCCC[C@@H]1SC[C@@H]2NC(=O)N[C@@H]21)C(=O)NCC(=O)N[C@H]1CSSC[C@@H](C(=O)O)NC(=O)[C@H](CO)NC(=O)[C@H]([C@@H](C)O)NC(=O)[C@H](Cc2ccc(O)cc2)NC(=O)[C@H]([C@@H](C)O)NC(=O)[C@H](CCCCN)NC(=O)[C@H](Cc2c[nH]c3ccccc23)NC(=O)[C@H](Cc2ccccc2)NC(=O)[C@H](Cc2ccccc2)NC(=O)[C@H](CC(N)=O)NC(=O)[C@H](CCCCN)NC1=O` [Bio-6C-S14, Biotinyl-[NH--(CH2)5 --CO]--NH-(Tyr11)SRIF14] ({Biotin-Ahx}-AGCKNFFWKTYTSC-OH; disulfide 3-14), at SRIF receptor [1], the IC50 (usually the midpoint of a concentration-inhibition curve) was 2 nM.

Molecule `C[C@H](NC(=O)CCCCCNC(=O)CCCCCNC(=O)CCCC[C@@H]1SC[C@@H]2NC(=O)N[C@@H]21)C(=O)NCC(=O)N[C@H]1CSSC[C@@H](C(=O)O)NC(=O)[C@H](CO)NC(=O)[C@H]([C@@H](C)O)NC(=O)[C@H](Cc2ccc(O)cc2)NC(=O)[C@H]([C@@H](C)O)NC(=O)[C@H](CCCCN)NC(=O)[C@H](Cc2c[nH]c3ccccc23)NC(=O)[C@H](Cc2ccccc2)NC(=O)[C@H](Cc2ccccc2)NC(=O)[C@H](CC(N)=O)NC(=O)[C@H](CCCCN)NC1=O` [Bio-12C-S14, Biotinyl-[NH-(CH2)5 -CO]2 -NH-(Tyr11)SRIF14] ({Biotin-Ahx-Ahx}-AGCKNFFWKTYTSC-OH; disulfide 3-14 (inferred); C-terminus assumed) showed an IC50 at SRIF receptor [1] of 2 nM.

For the molecule `CC(C)C[C@H](NC(=O)[C@H](C)NC(=O)[C@@H]1CCCN1C(=O)[C@H](CC(N)=O)NC(=O)[C@H](CO)NC(=O)[C@H](CC(N)=O)NC(=O)[C@H](C)NC(=O)[C@H](CO)NC(=O)CCCC[C@@H]1SC[C@@H]2NC(=O)N[C@@H]21)C(=O)N[C@@H](C)C(=O)N1CCC[C@H]1C(=O)N[C@@H](CCCNC(=N)N)C(=O)N[C@@H](CCC(=O)O)C(=O)N[C@@H](CCCNC(=N)N)C(=O)N[C@@H](CCCCN)C(=O)N[C@@H](C)C(=O)NCC(=O)N[C@H]1CSSC[C@@H](C(=O)O)NC(=O)[C@H](CO)NC(=O)[C@H]([C@@H](C)O)NC(=O)[C@H](Cc2ccc(O)cc2)NC(=O)[C@H]([C@@H](C)O)NC(=O)[C@H](CCCCN)NC(=O)[C@@H](Cc2c[nH]c3ccccc23)NC(=O)[C@H](Cc2ccccc2)NC(=O)[C@H](Cc2ccccc2)NC(=O)[C@H](CC(N)=O)NC(=O)[C@H](CCCCN)NC1=O` [Bio-S28, Biotinyl-NH-(Leu8, D-Trp22, Tyr25)SRIF28] (Biotin-SANSNPALAPRERKAGCKNFF[dW]KTYTSC-OH; disulfide 17-28 (inferred); C-terminus assumed), the IC50 at SRIF receptor [1] turned out to be 0.3 nM.

`C[C@H](N)C(=O)NCC(=O)N[C@H]1CSSC[C@@H](C(=O)O)NC(=O)[C@H](CO)NC(=O)[C@H]([C@@H](C)O)NC(=O)[C@H](Cc2ccccc2)NC(=O)[C@H]([C@@H](C)O)NC(=O)[C@H](CCCCN)NC(=O)[C@H](Cc2c[nH]c3ccccc23)NC(=O)[C@H](Cc2ccccc2)NC(=O)[C@H](Cc2ccccc2)NC(=O)[C@H](CC(N)=O)NC(=O)[C@H](CCCCN)NC1=O` [S14, reference compound] displayed an IC50 on SRIF receptor [1] of 0.2 nM.

Consider `C[C@H](N)C(=O)NCC(=O)N[C@H]1CSSC[C@@H](C(=O)O)NC(=O)[C@H](CO)NC(=O)[C@H]([C@@H](C)O)NC(=O)[C@H](Cc2ccc(O)c(I)c2)NC(=O)[C@H]([C@@H](C)O)NC(=O)[C@H](CCCCN)NC(=O)[C@H](Cc2c[nH]c3ccccc23)NC(=O)[C@H](Cc2ccccc2)NC(=O)[C@H](Cc2ccccc2)NC(=O)[C@H](CC(N)=O)NC(=O)[C@H](CCCCN)NC1=O` [[^125 I]Tyr11-S14] (H-AGCKNFFWKT[Tyr(3-I)]TSC-OH; disulfide 3-14 (inferred); N-terminus and C-terminus assumed), for which the results for the “A/B, GFB/PEI filters” value in the assay on SRIF receptor [2] (100,000 x g supernatant), in the assay with SRIF receptor [2] (Eluted from WGA-agarose) and with SRIF receptor [2] (Non-bound to WGA-agarose) were 11.3, 33.7 and 2.9, respectively. Moreover, the “A/B (total/non-specific)” value in the assay with SRIF receptor [2] (setting [4]) worked out at 8.2; in the assay on SRIF receptor [2] (Sample: Bound to WGA-agarose) it was 22.1; in the assay on SRIF receptor [2] (setting [5]), 23.0; in the assay on SRIF receptor [2] (Sample: Membranes), 5.3; in the assay on SRIF receptor [2] (setting [6]) it was 2.4. The “CPM of [125I]Tyr11-S14, A. Total” value in the assay on SRIF receptor [2] (setting [4]) is 104,420 CPM; with SRIF receptor [2] (Sample: Bound to WGA-agarose), 69,889 CPM; in the assay on SRIF receptor [2] (setting [5]), 58,925 CPM; in the assay on SRIF receptor [2] (Sample: Membranes) it was 151,848 CPM; with SRIF receptor [2] (setting [6]), 23,112 CPM. Further, the “CPM of [125I]Tyr11-S14, B. Non-Specific” value with SRIF receptor [2] (setting [4]) is on record as 12,756 CPM; with SRIF receptor [2] (Sample: Bound to WGA-agarose), 3,157 CPM; with SRIF receptor [2] (setting [5]), 2,524 CPM; in the assay with SRIF receptor [2] (Sample: Membranes), 28,812 CPM; in the assay on SRIF receptor [2] (setting [6]), 9,624 CPM. In addition, on SRIF receptor [3], the Kd (commonly the equilibrium constant for the complex coming apart) is 0.1 nM.

Turning to Biotinyl-NH-SRIF14 [Biotinyl-NH-S14], the “potency relative to S14 in the competitive binding assay” value in the assay on SRIF receptor [1] (FIG. 1A, 40 ug GH4 C1 membrane protein, 85,000 cpm radioligand) is “about 1.5%”.
